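All cell lines were grown in 96-well plates and treated with compound for 48 hours. Abbreviation: GI50, concentration required for 50% inhibition of growth. TGI denotes the concentration required for complete inhibition of growth.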 Where a SMILES comes first, the peptide text is derived from it. [ ]: non-standard residue; d: D form. The star is where a group is joined. Cbz = O=C(OCc1ccccc1)*; Aib = CC(C)(N)C(=O)O
Experiments:
Assay in all cases: NCI tumour cell line growth inhibition, 48 h
SF-268 CNS = tested on: SF-268 CNS
OVCAR-5 ovarian = tested on: OVCAR-5 ovarian
KM12 colon = tested on: KM12 colon
LOX IMVI melanoma = tested on: LOX IMVI melanoma
ACHN renal = tested on: ACHN renal
SK-MEL-2 melanoma = tested on: SK-MEL-2 melanoma
SK-MEL-5 melanoma = tested on: SK-MEL-5 melanoma
NCI-H460 lung = tested on: NCI-H460 lung
MCF7 breast = tested on: MCF7 breast
M14 melanoma = tested on: M14 melanoma

SMILES | TGI (SF-268 CNS) | TGI (OVCAR-5 ovarian) | TGI (KM12 colon) | TGI (LOX IMVI melanoma) | TGI (ACHN renal) | TGI (SK-MEL-2 melanoma) | TGI (SK-MEL-5 melanoma) | TGI (NCI-H460 lung) | TGI (MCF7 breast) | TGI (M14 melanoma) | GI50 (SF-268 CNS) | GI50 (OVCAR-5 ovarian) | GI50 (KM12 colon) | GI50 (LOX IMVI melanoma) | GI50 (ACHN renal) | GI50 (SK-MEL-2 melanoma) | GI50 (SK-MEL-5 melanoma) | GI50 (NCI-H460 lung) | GI50 (MCF7 breast) | GI50 (M14 melanoma)
CCCCOc1ccc(S(=O)(=O)/N=C(\NO)Nc2ccc(Cl)cc2)cc1 | 33.3 µM | 33.6 µM | 31.7 µM | 31 µM | 28.2 µM | 31.6 µM | 28.1 µM | 32.7 µM | 28.8 µM | 28.8 µM | – | – | – | – | – | – | – | – | – | –
COc1ccc(S(=O)(=O)Nc2cc(Sc3cccc4cccnc34)c(O)c3ccccc23)cc1 | 9.81 µM | 12.7 µM | 15 µM | – | 10 µM | 6.26 µM | 2.85 µM | 10.5 µM | 2.77 µM | 12.1 µM | 1550 nM | 2830 nM | 1640 nM | 372 nM | 731 nM | 1370 nM | 1330 nM | 466 nM | 420 nM | 1300 nM
COc1ccc(/C=C(/c2ccc(OC)cc2)c2c(Cl)cc(Cl)c(/C(=C\c3ccc(OC)cc3)c3ccc(OC)cc3)c2N=Nc2ccccc2)cc1 | > 100 µM | > 100 µM | > 100 µM | > 100 µM | > 100 µM | > 100 µM | > 100 µM | > 100 µM | > 100 µM | > 100 µM | – | – | – | – | – | – | – | – | – | –
Clc1ncnc2c1nc(C#Cc1ccccc1)n2C1CCCCO1 (centres undefined) | 6.22 µM | 4.84 µM | 3.05 µM | 4.79 µM | 3.06 µM | 6.49 µM | 5.06 µM | 8.09 µM | 3.22 µM | 4.39 µM | – | – | – | – | – | – | – | – | – | –
O=C(CN1CCN(c2ccccn2)CC1)N1CCCn2c1nc1ccccc1c2=O | > 100 µM | > 100 µM | > 100 µM | > 100 µM | > 100 µM | > 100 µM | > 100 µM | > 100 µM | > 100 µM | > 100 µM | – | – | – | – | – | – | – | – | – | –
COC(=O)C(CNC(=O)/C=C/c1ccc(OC(C)=O)c(OC(C)=O)c1)NC(=O)/C=C/c1ccc(OC(C)=O)c(OC(C)=O)c1 (centres undefined) | > 100 µM | > 100 µM | > 100 µM | > 100 µM | > 100 µM | > 100 µM | > 100 µM | > 100 µM | > 100 µM | > 100 µM | – | – | – | – | – | – | – | – | – | –
CC1CN=C(c2ccc(CN3CCC(CCCC4CCN(Cc5ccc(C6=NCC(C)N6)cc5)CC4)CC3)cc2)N1 (centres undefined) | > 100 µM | 63 µM | 40 µM | > 100 µM | > 100 µM | 52.3 µM | > 100 µM | 36.8 µM | 50.3 µM | > 100 µM | – | – | – | – | – | – | – | – | – | –
Cc1ccc(C)c2c1n1c(=O)n(C)c(=O)n21 | > 100 µM | > 100 µM | > 100 µM | > 100 µM | > 100 µM | > 100 µM | > 100 µM | > 100 µM | > 100 µM | > 100 µM | – | – | – | – | – | – | – | – | – | –
Cc1cc(OCc2nnc3n2N=C(c2cc(F)c(Cl)cc2Cl)/C(=C/c2ccc(-c4ccc(Cl)cc4)o2)S3)ccc1Cl | > 50 µM | > 50 µM | > 50 µM | > 50 µM | > 50 µM | > 50 µM | > 50 µM | > 50 µM | > 50 µM | > 50 µM | – | – | – | – | – | – | – | – | – | –
O=c1[nH]c2ccc(C(F)(F)F)cc2nc1C(F)(F)F | > 100 µM | > 100 µM | 57.7 µM | 60.8 µM | > 100 µM | 43.1 µM | 35.5 µM | > 100 µM | 80.3 µM | > 100 µM | – | – | – | – | – | – | – | – | – | –
NS(=O)(=O)c1ccc(NCc2nc3ccccc3[nH]2)cc1 | > 100 µM | > 100 µM | > 100 µM | > 100 µM | > 100 µM | > 100 µM | > 100 µM | > 100 µM | > 100 µM | > 100 µM | – | – | – | – | – | – | – | – | – | –
O=C1Nc2ccccc2SC1=C(C(=O)c1ccccc1)C(=O)c1ccccc1 | > 100 µM | > 91.1 µM | > 100 µM | > 100 µM | > 100 µM | 67.1 µM | > 100 µM | > 86.8 µM | > 100 µM | > 100 µM | – | – | – | – | – | – | – | – | – | –
Fc1ccc2c(c1)nc1n2C(c2c(F)cccc2F)SC1 (centres undefined) | > 100 µM | > 100 µM | 64.4 µM | > 100 µM | > 100 µM | > 100 µM | 68.3 µM | > 100 µM | > 100 µM | > 100 µM | – | – | – | – | – | – | – | – | – | –
COc1ccc(/N=N/C(=NNC(=O)c2ccc(C)cc2)c2ccc(N(C)C)cc2)cc1 | > 100 µM | > 100 µM | > 100 µM | > 100 µM | > 89.9 µM | > 100 µM | > 95.3 µM | > 100 µM | 56.1 µM | > 100 µM | – | – | – | – | – | – | – | – | – | –
c1ccc(OCc2nnc(CCCCCCCCc3nnc(COc4ccccc4)o3)o2)cc1 | > 100 µM | > 100 µM | > 100 µM | > 100 µM | > 100 µM | > 100 µM | > 100 µM | > 100 µM | > 100 µM | > 100 µM | – | – | – | – | – | – | – | – | – | –
CC1=NN2CCC(=O)N=C2S1 | > 100 µM | > 100 µM | > 100 µM | > 100 µM | > 100 µM | > 100 µM | > 100 µM | > 100 µM | > 100 µM | > 100 µM | – | – | – | – | – | – | – | – | – | –
Nc1c(C(=O)O)nnc2cc(Cl)ccc12 | > 100 µM | > 100 µM | > 100 µM | > 100 µM | > 100 µM | > 100 µM | > 100 µM | > 100 µM | > 100 µM | > 100 µM | – | – | – | – | – | – | – | – | – | –
COc1ccc(/C=C2\OC(=O)C(Cl)=C2c2ccc(OC)c(Cl)c2)cc1 | 44.3 µM | 90.5 µM | > 100 µM | > 100 µM | > 100 µM | > 100 µM | 48.6 µM | 59 µM | 46.1 µM | 76.9 µM | – | – | – | – | – | – | – | – | – | –
Nc1ccn(CC(O)c2cc3ccccc3[nH]2)c(=O)n1 (centres undefined) | > 100 µM | > 100 µM | > 100 µM | > 100 µM | > 100 µM | > 100 µM | > 100 µM | > 100 µM | > 100 µM | > 100 µM | – | – | – | – | – | – | – | – | – | –
O=C1C=CC(=O)c2c(O)c(N(CCCl)CCCl)c(Cl)c(O)c21 | > 8.4 µM | > 9.1 µM | > 9.63 µM | 6.25 µM | 5.6 µM | > 7.91 µM | 7.41 µM | > 10 µM | > 8.33 µM | 6.06 µM | – | – | – | – | – | – | – | – | – | –
O=C(O)C1CSC2(CCCN(Cc3ccccc3)C2)N1 (centres undefined) | > 100 µM | > 100 µM | > 100 µM | > 100 µM | > 100 µM | > 100 µM | > 100 µM | > 100 µM | > 100 µM | > 100 µM | – | – | – | – | – | – | – | – | – | –
CN1C/C(=C\c2cccs2)C(=O)/C(=C/c2cccs2)C1 | > 100 µM | 66.8 µM | 83.3 µM | 41 µM | 66.1 µM | 48.9 µM | > 100 µM | > 100 µM | > 100 µM | 82.9 µM | – | – | – | – | – | – | – | – | – | –
C=C(Cl)CN1c2ccccc2C=Cc2ccccc21 | > 100 µM | 50.8 µM | 48.9 µM | 52.4 µM | 35.4 µM | 40.6 µM | 20.3 µM | 16.2 µM | 50.4 µM | 57.8 µM | – | – | – | – | – | – | – | – | – | –
CCN(CC)CCNc1ccc([N+](=O)[O-])c2nc3ccc(OC)cc3c(N)c12 | 3.63 µM | 3.15 µM | 2.57 µM | 0.344 µM | 2.89 µM | 3.22 µM | 2.22 µM | 2.67 µM | 1.31 µM | 2.97 µM | – | – | – | – | – | – | – | – | – | –
CC(C)OP(=O)(OC(C)C)/C(C#N)=C/c1c[nH]c2ccccc12 | > 100 µM | > 100 µM | > 100 µM | > 100 µM | > 100 µM | > 100 µM | > 100 µM | > 100 µM | > 100 µM | > 100 µM | – | – | – | – | – | – | – | – | – | –
Nc1ccc(C(=O)O)cc1 | > 100 µM | > 100 µM | > 100 µM | > 100 µM | > 100 µM | > 100 µM | > 100 µM | > 100 µM | > 100 µM | > 100 µM | – | – | – | – | – | – | – | – | – | –
CCOC(=O)C1=C(C)N(Cc2ccccc2)C2(O)C(OC)CC(=O)C3C(=O)N(c4ccccc4)C(=O)C132 (centres undefined) | > 100 µM | > 100 µM | 55.6 µM | > 100 µM | 48.4 µM | 59.1 µM | 37.1 µM | > 100 µM | 34.5 µM | > 100 µM | – | – | – | – | – | – | – | – | – | –
CC(C)(NC(=O)C(C)(C)NC(=O)OCc1ccccc1)C(=O)O (Cbz-[Aib]-[Aib]-OH) | > 100 µM | > 100 µM | > 100 µM | > 100 µM | > 100 µM | > 100 µM | > 100 µM | > 100 µM | > 100 µM | > 100 µM | – | – | – | – | – | – | – | – | – | –
CCc1n[nH]c(=O)[nH]1 | > 100 µM | > 100 µM | > 100 µM | > 100 µM | > 100 µM | > 100 µM | > 100 µM | > 100 µM | > 100 µM | > 100 µM | – | – | – | – | – | – | – | – | – | –
